Counter-ions that a name gives are not always drawn. Like-named read-outs stand apart in the source and are kept apart here.
Tests used:
[1] = target: ROCK2 (Homo sapiens, UniProt O75116); assay: ROCK2 kinase inhibition assay (LABCHIP 3000 Reader, FITC peptide substrate);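 note: rho kinase reaction read by separating phosphorylated from unphosphorylated peptide on chip, with inhibition of kinase activity computed per concentration across a dose-response series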
[2] = test system: neointimal formation; conditions: rats, balloon injury model; cited from earlier work
[3] = test system: congestive heart failure in Dahl salt-sensitive rats; conditions: cited from earlier work
[4] = test system: spontaneously hypertensive rat, renal hypertensive rat and deoxycortisone acetate salt hypertensive rat models; conditions: cited from earlier work
[5] = test system: rat stroke model; conditions: cited from earlier work
[6] = test system: IL-1 beta-induced coronary stenosis; conditions: long term treatment, porcine model; cited from earlier work
[7] = read-out: ROCK2 Activity (ROCK2 IC50), 5 μM ATP, 1.5 μM peptide substrate, pH 7.5

ROCK2, sequence (O75116 whole entry, species assumed): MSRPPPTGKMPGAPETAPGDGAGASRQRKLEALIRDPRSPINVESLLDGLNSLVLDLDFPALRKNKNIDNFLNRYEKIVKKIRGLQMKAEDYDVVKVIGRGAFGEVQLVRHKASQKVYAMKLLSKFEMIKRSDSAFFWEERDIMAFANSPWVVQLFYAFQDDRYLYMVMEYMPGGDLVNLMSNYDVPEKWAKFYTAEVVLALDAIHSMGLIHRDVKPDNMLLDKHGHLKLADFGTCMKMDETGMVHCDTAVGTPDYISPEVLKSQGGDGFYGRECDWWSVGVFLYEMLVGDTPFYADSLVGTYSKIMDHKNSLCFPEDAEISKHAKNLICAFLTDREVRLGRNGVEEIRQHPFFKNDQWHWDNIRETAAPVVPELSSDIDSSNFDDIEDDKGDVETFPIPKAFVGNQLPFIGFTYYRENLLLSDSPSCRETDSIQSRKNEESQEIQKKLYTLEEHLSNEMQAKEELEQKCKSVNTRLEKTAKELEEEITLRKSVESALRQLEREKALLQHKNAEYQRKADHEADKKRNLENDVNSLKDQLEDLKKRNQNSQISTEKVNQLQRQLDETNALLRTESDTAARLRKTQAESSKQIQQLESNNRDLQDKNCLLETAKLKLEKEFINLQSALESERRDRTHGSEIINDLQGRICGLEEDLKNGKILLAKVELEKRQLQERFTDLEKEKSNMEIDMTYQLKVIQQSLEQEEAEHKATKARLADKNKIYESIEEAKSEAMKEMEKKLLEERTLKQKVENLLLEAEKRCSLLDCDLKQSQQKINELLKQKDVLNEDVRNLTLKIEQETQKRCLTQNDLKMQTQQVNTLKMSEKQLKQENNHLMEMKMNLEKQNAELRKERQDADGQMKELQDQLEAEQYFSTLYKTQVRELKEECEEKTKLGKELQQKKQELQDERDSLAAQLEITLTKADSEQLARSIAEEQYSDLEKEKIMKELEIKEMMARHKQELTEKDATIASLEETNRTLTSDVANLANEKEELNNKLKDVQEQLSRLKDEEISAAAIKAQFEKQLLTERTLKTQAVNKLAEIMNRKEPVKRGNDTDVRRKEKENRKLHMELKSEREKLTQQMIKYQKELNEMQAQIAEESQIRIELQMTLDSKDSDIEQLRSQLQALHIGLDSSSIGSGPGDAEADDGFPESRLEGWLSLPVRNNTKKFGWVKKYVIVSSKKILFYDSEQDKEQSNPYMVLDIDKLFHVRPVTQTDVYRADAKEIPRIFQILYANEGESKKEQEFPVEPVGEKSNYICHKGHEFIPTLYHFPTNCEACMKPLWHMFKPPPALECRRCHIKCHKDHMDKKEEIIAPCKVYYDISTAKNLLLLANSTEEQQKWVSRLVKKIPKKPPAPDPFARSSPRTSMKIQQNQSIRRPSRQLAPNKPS

| Compound | IC50 [1, 7] [nM] | also measured |
| --- | --- | --- |
| Cc1nc(C(=O)NC2CC3(C2)CC(Oc2ncccc2C(N)=O)C3)c2ccc(Br)cn12 [Example 457, 6-bromo-N-((aR)-6-((3-carbamoylpyridin-2-yl)oxy)spiro[3.3]heptan-2-yl)-3-methylimidazo[1,5-a]pyridine-1-carboxamide] | 50 to 250 |  |
| Cc1c(-c2ccc3c(C(=O)NC4CC5(C4)CC(Oc4ncccc4C(N)=O)C5)nc(C)n3c2)cnn1C [Example 458, N-((aR)-6-((3-carbamoylpyridin-2-yl)oxy)spiro[3.3]heptan-2-yl)-6-(1,5-dimethyl-H-pyrazol-4-yl)-3-methylimidazo[1,5-a]pyridine-1-carboxamide] | 5 to 50 |  |
| Cc1nn(C)cc1-c1ccc2c(C(=O)NC3CC4(C3)CC(Oc3ncccc3C(N)=O)C4)nc(C)n2c1 [Example 459, N-((aR)-6-((3-carbamoylpyridin-2-yl)oxy)spiro[3.3]heptan-2-yl)-6-(1,3-dimethyl-1H-pyrazol-4-yl)-3-methylimidazo[1,5-a]pyridine-1-carboxamide] | 5 to 50 |  |
| Cc1nc(C(=O)NC2CC3(C2)CC(Oc2ncccc2C(N)=O)C3)c2ccc(-c3cnn(C)c3)cn12 [Example 460, N-((aR)-6-((3-carbamoylpyridin-2-yl)oxy)spiro[3.3]heptan-2-yl)-3-methyl-6-(1-methyl-1H-pyrazol-4-yl)imidazo[1,5-a]pyridine-1-carboxamide] | 5 to 50 |  |
| NC(=O)c1cccnc1OC1CC2(CC(NC(=O)c3nc(N)nc4ccccc34)C2)C1 [Example 461, 2-Amino-N-((aR)-6-((3-carbamoylpyridin-2-yl)oxy)spiro[3.3]heptan-2-yl)quinazoline-4-carboxamide, 2 TFA] | 50 to 250 |  |
| NC(=O)c1cccnc1OC1CC2(CC(NC(=O)c3cnn4c(C5CC5)c(OCC5(O)CCC5)ccc34)C2)C1 [Example 462, N-((aR)-6-((3-carbamoylpyridin-2-yl)oxy)spiro[3.3]heptan-2-yl)-7-cyclopropyl-6-((1-hydroxycyclobutyl)methoxy)pyrazolo[1,5-a]pyridine-3-carboxamide, TFA] | < 5 |  |
| [H][C@]1(Oc2ncccc2C(N)=O)C[C@]2(C[C@@H](NC(=O)c3cn4ccc(OCc5ccccc5)cc4n3)C2)C1 (stereo partly drawn) [Example 463, 7-(benzyloxy)-N-((aR)-6-((3-carbamoylpyridin-2-yl)oxy)spiro 3.31 heptan-2-yl)imidazo[1,2-a]pyridine-2-carboxamide, TFA Salt] |  | IC50 [1]: 50 to 250 nM |
| [H][C@]1(Oc2ncccc2C(N)=O)C[C@]2(C[C@@H](NC(=O)c3cn4cc(OC)ccc4n3)C2)C1 (stereo partly drawn) [Example 464, N-((aR)-6-((3-carbamoylpyridin-2-yl)oxy)spiro[3.3]heptan-2-yl)-6-methoxyimidazo[1,2-a]pyridine-2-carboxamide, TFA Salt] |  | IC50 [1]: 250 to 2500 nM |
| C[C@@H](N)[C@H]1CC[C@H](C(=O)Nc2ccncc2)CC1 [Example Y-27632] |  | neointimal formation [2]: inhibited neointimal formation; ventricular hypertrophy, fibrosis and function [3]: improve ventricular hypertrophy, fibrosis and function; blood pressure ([4]; control rats): only a minor effect on blood pressure; blood pressure ([4]; three rat models of hypertension): significantly decrease blood pressure |
| O=S(=O)(c1cccc2cnccc12)N1CCCNCC1 [fasudil] |  | infarct size and neurologic deficit [5]: reduce both the infarct size and neurologic deficit; coronary constrictive remodeling [6]: promote a regression of coronary constrictive remodeling; coronary stenosis [6]: progressively reduce coronary stenosis |
| N-((aR)-6-((3- carbamoylpyridin-2- yl)oxxy)spiro[3.3] heptan-2-yl)- 5-fluoro-1- (2-hydroxy-2- methylpropyl)- 3a,7a-dihydro- 1H-indazole-3- carboxamide, trifluoroacetate [Example 67] | 5 to 50 |  |
| N-((aR)-6-((3- carbamoylpyridin-2- yl)oxy))spiro[3.3] heptan-2-yl)- 6-((E)-3,3,3- trifluoroprop-1- en-1-yl) pyrazolo[1,5- a]pyridine-3- carboxamide, trifluoroacetate [Example 116] | 5 to 50 |  |
| N-((aR)-6-((3- carbamoylpyridin-2- yl)oxy)spiro [3.3]heptan-2-yl)- 6- methoxypyrazolo[1,5- a]pyridine-3- carboxamide, trifluoroacetate [Example 100] | 5 to 50 |  |
| N-((aR)-6-((3- carbamoylpyridin-2- yl)oxy)spiro[3.3] heptan-2-yl)- 6-(3-hydroxy-3- methylbutoxy) pyrazolo[1,5- a]pyridine-3- carboxamide, trifluoroacetate [Example 123] | 5 to 50 |  |
| N-((aR)- 6-((3- carbamoyl- pyridin-2- yl)oxy)spiro[3.3] heptan-2-yl)- 1-(2- hydroxy-2- methylpropyl)-1H- pyraolo[3,4-b] pyridine-3- carboxamide, trifluoroacetate [Example 94] | 5 to 50 |  |
| N-((aR)- 6-((3- carbamoylpyridin- 2- yl)oxy)spiro[3.3] heptan-2-yl)- 2-(3,3-difluoroazetidin- 1-yl)- 4-methylthiazole- 5- carboxamide, trifluoroacetate [Example 90] | 50 to 250 |  |

Source: patent publication US10829501B2 (BRISTOL-MYERS SQUIBB COMPANY, priority 2016, dated 2020)
